These results are taken from patent publication US20260347309A1 (priority 2022, published 2026).

For series [1] the following is noted: cited from earlier work.
For series [2], the target named is T1, NR1/NR2B ionotropic receptor (Homo sapiens, UniProt Q05586+Q13224).
T1 construct: expressed in transfected cells
Description: ScreenPatch IonWorks Barracuda electrophysiology assay on NR1/NR2B. The series is classed as cell-based. As to conditions: for relative inhibition of NR2B: comparison of enantiomers and racemate, words. The procedure:
(§1) Test articles were evaluated for functional effects on ion channels.
(§2) The final DMSO concentration was 0.6%.
(§3) Adjusted to pH 7.2 with CsOH.
For orientation: The patch-clamp technique gives a direct electrical read-out from membranes.

A further series has as its system tumor. Briefly: mouse cancer models, general anti-tumor activity. As to conditions: alone. The series is classed as in vivo.
The test system of series [3] is B16-OVA cells / B3Z cells. Briefly: B3Z activation assay, recognition of OVA model tumor antigen on B16-OVA cells. The series is classed as cell-based. Conditions: B16-OVA cells treated (100 μM, 24 hours) then B3Z co-culture 24 h; read-out: increase in recognition of model tumor antigen by B3Z cells. The procedure:
B16-OVA cells are seeded into a 96-well plate and treated with 100 μM […], […] or racemic rimantadine for 24 hours, prior to addition of B3Z cells. After 24 hours of co-culture, medium is removed and 100 μl of lysis buffer [0.155 mM chlorophenol red β-D-galactopyranoside (CPRG) (Roche), 0.125% Nonidet P-40 Alternative (EMDCalbiochem), and 9 mM MgCl2 (Sigma) in PBS] are added. After incubation for 4 hours at 37 °C, the absorbance at 570 nm is determined on a TECAN infinite M200 microplate reader.

The next series relates to AT-84-E7. Briefly: BrdU incorporation / cell proliferation assay in AT-84-E7. Conditions: for G0/G1 cell cycle arrest / S phase: BrdU, alone. The series is classed as cell-based. The method, then:
(§4) [LEFT OUT]. Louis, MO) (27).
(§5) Cell cycle progression was analyzed on the basis of BrdU incorporation following […] cell staining with BrdU-APC and 7-AAD using BD Pharmingen BrdU Flow Kit. (BD, Franklin Lakes, NJ) according to the manufacture's protocol. Cells are analyzed using flow cytometry. Cell proliferation is assessed by using MTT [3-(4,5-dimethylthiazol-2-yl)-2,5-diphenyltetrazolium bromide]. First, cells are seeded in 96-well plate and cultured for 2-3 days. Next, culture media is replaced with fresh media containing 0.5 mg/ml of MTT (Sigma) and the plates are incubated for 4 hours at 37 °C. Then, purple formazan crystals are dissolved in lysis buffer (4 mM HCl and 0.1% NP-40 in isopropanol) and the absorbance is recorded on a TECAN infiniteM200 microplate reader (Tecan, Männedorf, Switzerland) at a wavelength of 570 nm with absorbance at 650 nm as reference.
(In general: Incorporation of labelled thymidine or its analogues reports DNA synthesis.)

The next series has as its system B16-OVA. Description: BrdU incorporation / cell proliferation assay in B16-OVA. The series is classed as cell-based. Conditions: for G0/G1 cell cycle arrest / S phase: BrdU, alone. The method, then:
as §4, §5

Another series has as its system Stathmin. Description: RTqPCR gene expression of Stathmin. The series is classed as cell-based. The method, then: (§6) Total RNA is extracted using TRIzol Reagent (Invitrogen) and reverse transcribed with qScript cDNA Synthesis Kit (Quanta BioSciences, Beverly, MA) according to the manufacturer's instructions. Quantitative PCR analysis is conducted by using KAPA SYBR […] FAST (KAPA Biosystems, Wilmington, MA) on the 7900HT Fast Real-Time PCR System (Applied Biosystems, Foster City, CA).
Background: Real-time PCR tracks product formation cycle by cycle.

A further series relates to Tau. Description: RTqPCR gene expression of Tau. The series is classed as cell-based. The method, then:
as §6

In series [4] the test system is murine and human cell lines engineered to express HPV16 E5. Description: cell cycle arrest in cell lines engineered to express HPV16 E5. The series is classed as cell-based. Conditions: cells expressing HPV16 E5. The method, then: as §5
Series [5] relates to glutamate, GABA, dopamine receptors. Briefly: in vivo SPECT receptor binding selectivity (Examples 4 and 5). Also noted: species or system mouse.
Series [6] in a line: in vivo CNS adverse effects / toxicity (Examples 4 and 5). Also noted: species or system mouse.
In a further series the test system is M2 transmembrane channel. As to conditions: cited from earlier work.
The test system of a further series is B16-OVA tumor. Description: mouse tumor model B16-OVA, IP treatment. As to conditions: in combination with anti-PDL1 immunotherapy; B16-OVA tumors.
Another series concerns MHC class I. Description: MHC class I surface expression on RAW264.7.
A further series deals with MHC class II. Briefly: MHC class II surface expression on RAW264.7.
The subject of the next series is MHC I. As to conditions: E5-positive AT-84-E7.
The next series deals with MHC. Description: surface expression of MHC (flow cytometry), multiple cell lines.
A further series concerns CAL-27 cells. Description: CAL-27 in vitro MTT proliferation assay. As to conditions: 0, 100, 250 or 500 μM, 24 or 48 hours. The series is classed as cell-based, human. The procedure: On day 1, CAL-27 cells were seeded in a 96-well plate (2-4×10^3 cells/well, medium 100 μl/well) and left overnight to allow the cells to attach to the plate. On day 2, varying concentrations of rimantadine (0 μM, 100 μM, 250 μM, or 500 μM) were added to the cells and allowed to incubate for 24 hours or 48 hours. On either day 3 or 4, the culture media was aspirated, and 100 μl/well of MTT solution (comprising an MTT concentration of 0.5 mg/ml; formed by dilution of thiazolyl blue tetrazolium bromide solution (SIGMA, Cat #M2128) with stock solution (5 mg/ml in PBS (−20 °C)) was added to the culture media. The cells were incubated in a CO2 incubator at 37 °C for 3 hours, and the MTT solution was aspirated. 100 μl/well of DMSO was then added and the cells were incubated for about 5 minutes. A OD570 nm (Ref 650 nm) was then read. Results of the experiment are shown in FIG. 2.

The target of series [7] is T2, NR1/NR2A ionotropic receptor (Homo sapiens, UniProt Q05586+Q12879).
T2 construct: expressed in transfected cells
Briefly: ScreenPatch IonWorks Barracuda electrophysiology assay on NR1/NR2A. The series is classed as cell-based. The procedure: as §1, §2, §3

For another series, the system named is D2/3 dopamine receptor. Conditions: radioligand; cited from earlier work.
The next series has as its system CAL-27. Briefly: BrdU incorporation and proliferation assays in CAL-27. The series is classed as cell-based, human. As to conditions: alone. The procedure: as §4, §5
For a further series, the system named is CAL-33. Description: BrdU incorporation and proliferation assays in CAL-33. As to conditions: alone. The series is classed as cell-based, human. The method, then:
as §4, §5

A further series concerns SCC-47. Description: BrdU incorporation and proliferation assays in SCC-47. The series is classed as cell-based, human. Conditions: alone. The procedure: as §4, §5
[8] abbreviates: agonist format, first application, data not shown.

T1 sequence (Q13224 27-1484, other chains not shown): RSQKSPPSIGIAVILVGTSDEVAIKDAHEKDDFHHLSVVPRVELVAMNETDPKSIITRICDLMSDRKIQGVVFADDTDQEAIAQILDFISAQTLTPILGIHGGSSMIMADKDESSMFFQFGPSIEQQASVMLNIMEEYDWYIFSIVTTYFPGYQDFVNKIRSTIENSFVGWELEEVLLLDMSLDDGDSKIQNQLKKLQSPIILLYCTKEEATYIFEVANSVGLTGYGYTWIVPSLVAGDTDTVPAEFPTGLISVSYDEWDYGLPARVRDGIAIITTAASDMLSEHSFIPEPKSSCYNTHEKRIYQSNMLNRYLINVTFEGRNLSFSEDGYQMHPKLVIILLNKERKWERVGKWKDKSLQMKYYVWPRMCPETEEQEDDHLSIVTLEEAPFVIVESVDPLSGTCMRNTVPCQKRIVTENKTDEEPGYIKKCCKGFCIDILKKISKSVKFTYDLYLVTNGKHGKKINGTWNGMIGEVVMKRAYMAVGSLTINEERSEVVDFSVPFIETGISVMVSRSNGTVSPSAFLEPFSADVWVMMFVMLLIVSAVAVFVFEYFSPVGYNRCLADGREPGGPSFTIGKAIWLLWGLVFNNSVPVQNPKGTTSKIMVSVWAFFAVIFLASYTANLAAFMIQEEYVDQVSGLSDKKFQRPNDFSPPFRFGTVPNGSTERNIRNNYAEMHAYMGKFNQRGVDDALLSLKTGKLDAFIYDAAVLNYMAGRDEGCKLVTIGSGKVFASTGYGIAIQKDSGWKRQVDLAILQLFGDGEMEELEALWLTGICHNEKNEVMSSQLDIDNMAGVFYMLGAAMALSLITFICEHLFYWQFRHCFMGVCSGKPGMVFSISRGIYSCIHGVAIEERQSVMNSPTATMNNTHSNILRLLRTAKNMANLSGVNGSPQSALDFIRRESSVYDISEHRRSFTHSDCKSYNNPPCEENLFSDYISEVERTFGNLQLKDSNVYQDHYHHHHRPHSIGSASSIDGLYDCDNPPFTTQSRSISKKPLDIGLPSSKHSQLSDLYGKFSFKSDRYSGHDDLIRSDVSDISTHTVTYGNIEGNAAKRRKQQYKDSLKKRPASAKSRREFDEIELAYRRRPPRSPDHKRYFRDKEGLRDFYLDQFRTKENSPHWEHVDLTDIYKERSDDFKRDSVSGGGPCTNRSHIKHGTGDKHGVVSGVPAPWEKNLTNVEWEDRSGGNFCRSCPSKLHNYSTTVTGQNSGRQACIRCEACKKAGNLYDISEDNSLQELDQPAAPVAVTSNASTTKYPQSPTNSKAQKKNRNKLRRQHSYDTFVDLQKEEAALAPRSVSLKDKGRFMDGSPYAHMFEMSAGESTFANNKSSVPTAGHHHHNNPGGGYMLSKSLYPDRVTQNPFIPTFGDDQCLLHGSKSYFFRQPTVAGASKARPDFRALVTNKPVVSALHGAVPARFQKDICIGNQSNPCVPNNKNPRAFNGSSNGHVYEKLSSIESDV
T2 sequence (Q12879 23-1464, other chains not shown): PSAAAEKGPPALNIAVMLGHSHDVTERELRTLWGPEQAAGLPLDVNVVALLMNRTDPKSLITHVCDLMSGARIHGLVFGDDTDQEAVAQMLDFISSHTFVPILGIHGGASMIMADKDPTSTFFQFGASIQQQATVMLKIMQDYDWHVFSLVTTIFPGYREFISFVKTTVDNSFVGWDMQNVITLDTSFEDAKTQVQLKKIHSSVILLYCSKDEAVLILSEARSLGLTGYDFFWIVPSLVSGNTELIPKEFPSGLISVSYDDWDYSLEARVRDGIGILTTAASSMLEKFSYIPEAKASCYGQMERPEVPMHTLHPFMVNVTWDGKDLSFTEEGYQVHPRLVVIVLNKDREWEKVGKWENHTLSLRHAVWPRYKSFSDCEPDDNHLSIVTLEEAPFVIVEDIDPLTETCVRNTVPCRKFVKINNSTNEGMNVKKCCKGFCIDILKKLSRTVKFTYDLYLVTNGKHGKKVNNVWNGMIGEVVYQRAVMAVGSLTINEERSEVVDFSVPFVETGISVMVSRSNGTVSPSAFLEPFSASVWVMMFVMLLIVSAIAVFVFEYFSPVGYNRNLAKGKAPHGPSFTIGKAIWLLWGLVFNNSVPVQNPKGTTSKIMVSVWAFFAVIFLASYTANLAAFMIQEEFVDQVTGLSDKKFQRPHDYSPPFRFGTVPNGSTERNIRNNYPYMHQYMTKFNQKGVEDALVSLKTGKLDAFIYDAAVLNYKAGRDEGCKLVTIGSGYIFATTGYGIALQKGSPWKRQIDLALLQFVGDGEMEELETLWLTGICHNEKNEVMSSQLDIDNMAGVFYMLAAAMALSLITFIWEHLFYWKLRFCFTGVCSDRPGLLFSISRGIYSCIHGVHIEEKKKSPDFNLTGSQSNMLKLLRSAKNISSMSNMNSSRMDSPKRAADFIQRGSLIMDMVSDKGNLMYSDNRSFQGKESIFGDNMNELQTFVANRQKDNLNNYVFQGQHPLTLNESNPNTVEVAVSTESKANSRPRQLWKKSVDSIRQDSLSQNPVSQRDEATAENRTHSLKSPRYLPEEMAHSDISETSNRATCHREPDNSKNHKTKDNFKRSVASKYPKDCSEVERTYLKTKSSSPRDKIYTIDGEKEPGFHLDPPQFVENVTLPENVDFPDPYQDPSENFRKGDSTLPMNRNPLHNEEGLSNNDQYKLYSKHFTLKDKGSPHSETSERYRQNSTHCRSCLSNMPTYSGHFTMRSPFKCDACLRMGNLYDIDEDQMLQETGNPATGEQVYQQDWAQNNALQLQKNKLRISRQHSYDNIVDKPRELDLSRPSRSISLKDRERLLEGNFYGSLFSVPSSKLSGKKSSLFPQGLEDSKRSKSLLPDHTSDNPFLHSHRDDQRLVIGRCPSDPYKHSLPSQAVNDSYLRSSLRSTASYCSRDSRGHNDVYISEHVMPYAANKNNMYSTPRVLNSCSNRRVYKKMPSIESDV

For `CC(N)C12CC3CC(CC(C3)C1)C2` (racemic) [racemic rimantadine], the side effects result in series [1] (currently prescribed doses) is “central nervous system (CNS) side effects, sleep side effects, gastrointestinal side effects, and atropinic side effects”. Also, the “most commonly cited toxicities for discontinuation of treatment” value in [1] (in vivo) is “Anxiety and insomnia”.
On to `C[C@@H](N)C12CC3CC(CC(C3)C1)C2` [2-R rimantadine], for which the “relative inhibition of NR2B” value in series [2] was “greater ability to inhibit NR2B as compared to racemic rimantadine”. Also, the anti-tumor activity result in the series on tumor is listed as “significantly decreased tumor growth”. For the same compound, the fold induction at 100 µM in series [3] worked out at 3. Also, in the series on AT-84-E7, the cell proliferation entry is recorded as “Suppression of cell proliferation”, the “G0/G1 cell cycle arrest” value is “significant increases in G0/G1 cell cycle arrest” and the S phase entry is on record as “significant decreases in S phase”. In addition, in the series on B16-OVA, the cell proliferation entry is recorded as “Suppression of cell proliferation”, the “G0/G1 cell cycle arrest” value was “significant increases in G0/G1 cell cycle arrest” and the S phase result is listed as “significant decreases in S phase”. Further, in the series with Stathmin, the Stathmin gene expression entry is recorded as “significant decreases”. The Tau gene expression entry in the series with Tau is reported as “Decreases in microtubule associated molecule Tau”. In addition, in series [4], the cell cycle arrest result is “induce cell cycle arrest”. In addition, the “binding selectivity or agonistic behavior to glutamate, GABA, dopamine receptors” value in [5] (Example 4, 10-20 mg/kg IP daily 7 days) is “significantly higher binding selectivity or agonistic behavior”. Further, the “incidence of central nervous system adverse effects” value in series [6] (Example 4) is “higher incidence of central nervous system adverse effects”. Besides, the “binding affinity for M2 channel pore” value with M2 transmembrane channel (one study, R- vs S-enantiomer) is “greater affinity than the S-enantiomer”. Besides, the survival entry with B16-OVA tumor is given as “significant improvement in survival”. Further, the “MHC class I surface expression” value in the series on MHC class I was “significant increases”. In the series with MHC class II, the “MHC class II surface expression” value is reported as “significant increases”. For the same compound, the “cell surface expression of MHC I” value with MHC I is “restored”. For the same compound, the “surface expression of MHC” value in the series with MHC was “Significant increases in surface expression of MHC”.
Take `C[C@H](N)C12CC3CC(CC(C3)C1)C2` [2-S rimantadine]: in [2], the “relative inhibition of NR2B” value was “to a lesser degree as compared to 2-R rimantadine and racemic rimantadine”. Moreover, the anti-tumor activity entry with tumor is “significantly decreased tumor growth”. The fold induction at 100 µM in series [3] was 3. Moreover, in the series with AT-84-E7, the cell proliferation result is on record as “Suppression of cell proliferation”, the “G0/G1 cell cycle arrest” value is “significant increases in G0/G1 cell cycle arrest” and the S phase result was “significant decreases in S phase”. In addition, in the series with B16-OVA, the cell proliferation entry is “Suppression of cell proliferation”, the “G0/G1 cell cycle arrest” value was “significant increases in G0/G1 cell cycle arrest” and the S phase entry is recorded as “significant decreases in S phase”. Moreover, in the series on Stathmin, the Stathmin gene expression result is “significant decreases”. Further, in the series on Tau, the Tau gene expression entry is “Decreases in microtubule associated molecule Tau”. In [4], the cell cycle arrest result was “induce cell cycle arrest”. Besides, in [5] (Example 5, 10-20 mg/kg IP daily 7 days), the “binding selectivity or agonistic behavior to glutamate, GABA, dopamine receptors” value is “significantly higher binding selectivity or agonistic behavior”. The “toxicity compared to 2-R rimantadine” value in [6] (Example 4, taken together with Example 2) is on record as “significantly less toxic”. Also, the “incidence of central nervous system adverse effects” value in [6] (Example 5) is “higher incidence of central nervous system adverse effects”. For the same compound, the “toxicity compared to 2-R rimantadine” value in [6] (Example 5, taken together with Example 2) is given as “significantly less toxic”. The “cancer cell proliferation compared to R-rimantadine or racemic rimantadine” value in the series on CAL-27 cells is recorded as “enhanced or equivalent cancer cell proliferation as compared to R-rimantadine or racemic rimantadine”. For the same compound, in the series on B16-OVA tumor, the survival result is listed as “significant improvement in survival”. In addition, the “MHC class I surface expression” value with MHC class I is listed as “significant increases”. In addition, the “MHC class II surface expression” value in the series with MHC class II is recorded as “significant increases”. In addition, in the series on MHC I, the “cell surface expression of MHC I” value is recorded as “restored”. For the same compound, in the series on MHC, the “surface expression of MHC” value is listed as “Significant increases in surface expression of MHC”.
As to `NC12CC3CC(CC(C3)C1)C2` [Amantadine], the “agonist effect: activation of NMDA receptors” value in series [7] (setting [8]) and in series [2] (setting [8]) was “Neither test articles nor amantadine had produced significant activation of NMDA receptors” throughout. For the same compound, the “shift in potency for steady state vs peak currents” value in [7] (suggests open channel block mechanism of inhibition) was “Leftward shift in amantadine potency for steady state currents measurements”.
For `CCN1CCC[C@H]1CNC(=O)c1c(OC)ccc(I)c1O` [IBZM], the “affinity for the D2/3 dopamine receptor” value in the series with D2/3 dopamine receptor is given as “high affinity”.
Consider `CC(N)C12CC3CC(CC(C3)C1)C2` (stereo not shown) [rimantadine], for which the cell cycle arrest result in the series with CAL-27, with CAL-33 and with SCC-47 was “Significant cell cycle arrest” throughout. Also, the proliferation entry in the series on CAL-27, in the series on CAL-33 and in the series on SCC-47 was “decreased proliferation” in each case. In the series with M2 transmembrane channel (by binding M2 transmembrane channel and blocking proton transport), the “inhibition of influenza activity” value was “inhibits influenza activity”.
